From ChEMBL document CHEMBL4342467, “Discovery of a Novel Dual-Target Inhibitor of ERK1 and ERK5 That Induces Regulated Cell Death to Overcome Compensatory Mechanism in Specific Tumor Types” (J Med Chem, 2020)

Assays:
[1] = biological target: Mitogen-activated protein kinase 1 (Homo sapiens) (UniProt P28482); assay: Inhibition of ERK2 (unknown origin) at 1 uM by Z'-Lyte assay relative to control
MKN-74 = assay: Antiproliferative activity against human MKN74 cells assessed as reduction in cell viability measured after 24 hrs; format: functional, cell-based; conditions: MKN-74, 24 h
HeLa = assay: Antiproliferative activity against human HeLa cells assessed as reduction in cell viability measured after 24 hrs; format: functional, cell-based
[2] = biological target: Mitogen-activated protein kinase 3 (Homo sapiens) (UniProt P27361); assay: Inhibition of ERK1 (unknown origin) at 1 uM by Z'-Lyte assay relative to control
Chain of Mitogen-activated protein kinase 3 (Homo sapiens) (P27361 whole entry): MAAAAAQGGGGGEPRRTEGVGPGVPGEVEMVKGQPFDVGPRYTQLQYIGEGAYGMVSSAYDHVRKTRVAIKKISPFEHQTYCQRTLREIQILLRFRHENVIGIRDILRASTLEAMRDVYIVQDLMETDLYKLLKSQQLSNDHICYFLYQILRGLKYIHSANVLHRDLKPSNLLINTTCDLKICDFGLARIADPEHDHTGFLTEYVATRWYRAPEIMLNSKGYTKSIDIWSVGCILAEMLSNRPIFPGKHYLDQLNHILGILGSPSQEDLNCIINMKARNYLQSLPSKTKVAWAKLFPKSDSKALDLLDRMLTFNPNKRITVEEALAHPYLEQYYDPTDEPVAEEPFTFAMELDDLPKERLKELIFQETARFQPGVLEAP

HL-60 = assay: Antiproliferative activity against human HL60 cells assessed as reduction in cell viability measured after 24 hrs; format: functional, cell-based; conditions: HL-60, 24 h
[3] = biological target: Mitogen-activated protein kinase 7 (Homo sapiens) (UniProt Q13164); assay: Inhibition of ERK5 (unknown origin) at 1 uM by Z'-Lyte assay relative to control
Chain of Mitogen-activated protein kinase 7 (Homo sapiens) (Q13164 2-816 limits assumed): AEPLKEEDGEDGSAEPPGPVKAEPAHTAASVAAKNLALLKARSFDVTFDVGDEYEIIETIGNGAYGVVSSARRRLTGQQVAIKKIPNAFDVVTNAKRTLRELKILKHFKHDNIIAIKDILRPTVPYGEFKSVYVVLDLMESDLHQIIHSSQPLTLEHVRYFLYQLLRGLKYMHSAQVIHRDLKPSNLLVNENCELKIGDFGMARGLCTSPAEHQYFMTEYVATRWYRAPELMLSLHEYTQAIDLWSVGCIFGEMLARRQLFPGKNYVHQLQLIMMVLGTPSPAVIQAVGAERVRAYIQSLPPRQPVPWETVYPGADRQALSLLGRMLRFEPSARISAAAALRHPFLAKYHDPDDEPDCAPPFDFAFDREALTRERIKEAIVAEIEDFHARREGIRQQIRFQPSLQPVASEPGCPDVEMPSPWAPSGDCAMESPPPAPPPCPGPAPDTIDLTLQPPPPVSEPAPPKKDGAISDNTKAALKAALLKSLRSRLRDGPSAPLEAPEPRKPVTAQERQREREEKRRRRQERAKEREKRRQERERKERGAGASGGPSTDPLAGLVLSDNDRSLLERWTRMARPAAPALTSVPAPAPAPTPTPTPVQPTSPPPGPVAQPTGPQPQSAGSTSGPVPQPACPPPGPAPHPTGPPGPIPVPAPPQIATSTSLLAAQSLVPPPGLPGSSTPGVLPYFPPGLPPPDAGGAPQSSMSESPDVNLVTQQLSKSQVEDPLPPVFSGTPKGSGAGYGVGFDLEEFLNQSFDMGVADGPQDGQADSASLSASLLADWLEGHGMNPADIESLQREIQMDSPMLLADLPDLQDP

Chain of Mitogen-activated protein kinase 1 (Homo sapiens) (P28482 whole entry): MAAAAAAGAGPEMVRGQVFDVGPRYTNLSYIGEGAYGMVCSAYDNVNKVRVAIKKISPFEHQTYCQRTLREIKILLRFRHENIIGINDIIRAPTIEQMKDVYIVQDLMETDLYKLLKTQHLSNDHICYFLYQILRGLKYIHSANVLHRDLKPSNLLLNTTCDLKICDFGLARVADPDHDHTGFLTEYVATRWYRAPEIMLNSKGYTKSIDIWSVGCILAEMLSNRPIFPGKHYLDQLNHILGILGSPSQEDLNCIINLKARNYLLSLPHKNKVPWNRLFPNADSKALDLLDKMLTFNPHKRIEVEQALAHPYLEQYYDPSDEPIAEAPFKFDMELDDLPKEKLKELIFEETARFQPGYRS

| Compound | inhibition [1] [%] | IC50 (MKN-74) [µM] | IC50 (HeLa) [µM] | inhibition [2] [%] | IC50 (HL-60) [µM] | inhibition [3] [%] |
| --- | --- | --- | --- | --- | --- | --- |
| Cc1ccccc1NC(=S)N1CCc2c(sc(NC(=O)c3ccccc3Br)c2C(N)=O)C1 | 60.8 | > 50 | > 50 | 65.1 | > 50 | 46.7 |
| NC(=O)c1c(NC(=O)c2ccccc2Cl)sc2c1CCN(C(=S)Nc1cc(C(F)(F)F)cc(C(F)(F)F)c1)C2 | 88.8 | 15 | 48.9 | 89.3 | 6.5 | 77.4 |
| NC(=O)c1c(NC(=O)c2ccccc2Cl)sc2c1CCN(C(=S)Nc1cccc3ccccc13)C2 | 81.3 | 20.7 | 30.8 | 82.8 | 13.4 | 72.5 |
| NC(=O)c1c(NC(=O)c2cccc([N+](=O)[O-])c2)sc2c1CCN(Cc1c(Cl)cccc1Cl)C2 | 29.3 | 13.5 | 46.1 | 31.6 | 18.4 | 45.2 |
| NC(=O)c1c(NC(=O)c2ccccc2Cl)sc2c1CCN(C(=O)Nc1c(Cl)cccc1Cl)C2 | 85 | 24.4 | 27.2 | 82.7 | 17.7 | 82.7 |
| NC(=O)c1c(NC(=O)c2ccc(C(F)(F)F)cc2)sc2c1CCN(C(=S)Nc1ccc(C(F)(F)F)cc1)C2 | 79.7 | 12.2 | > 50 | 82.5 | 5.52 | 57.9 |
| NC(=O)c1c(NC(=O)c2ccccc2Cl)sc2c1CCN(Cc1ccc(Cl)cc1)C2 | 55.4 | 18.7 | > 50 | 47.4 | 22.5 | 47 |
| NC(=O)c1c(NC(=O)c2ccc(C(F)(F)F)cc2)sc2c1CCN(Cc1ccc(Cl)cc1)C2 | 43.3 | > 50 | > 50 | 47.8 | > 50 | 61.1 |
| NC(=O)c1c(NC(=O)c2ccccc2F)sc2c1CCN(Cc1c(Cl)cccc1Cl)C2 | 36.9 | 7.43 | 33 | 48.4 | 10.3 | 21.1 |
| N#Cc1ccccc1CN1CCc2c(sc(NC(=O)c3ccccc3Cl)c2C(N)=O)C1 | 42.1 | 9.5 | > 50 | 55.8 | 10.4 | 44.3 |
| NC(=O)c1c(NC(=O)c2ccccc2I)sc2c1CCN(C(=S)Nc1ccccc1Br)C2 | 80 | 22.4 | > 50 | 82 | 18.9 | 85.5 |
| CCCCCC(=O)Nc1sc2c(c1C(N)=O)CCN(C(=S)NCCCC)C2 | 68.5 | > 50 | > 50 | 60.5 | > 50 | 43.3 |
| COc1ccccc1NC(=S)N1CCc2c(sc(NC(=O)c3ccccc3OC)c2C(N)=O)C1 | 48.7 | > 50 | > 50 | 44.7 | > 50 | 32 |
| NC(=O)c1c(NC(=O)c2ccccc2I)sc2c1CCN(C(=S)Nc1ccccc1C(F)(F)F)C2 | 80.7 | 14.2 | 49.2 | 77.5 | 19.7 | 64.8 |
| NC(=O)c1c(NC(=O)c2ccccc2Cl)sc2c1CCN(C(=S)Nc1ccccc1C(F)(F)F)C2 | 85.7 | 1.87 | 26.7 | 83.6 | 10.6 | 76.6 |
| NC(=O)c1c(NC(=O)c2ccccc2Cl)sc2c1CCN(Cc1ccc(Cl)cc1Cl)C2 | 66.6 | 16.3 | 21.1 | 68.9 | 8.01 | 63.1 |
| NC(=O)c1c(NC(=O)c2ccc(C(F)(F)F)cc2)sc2c1CCN(Cc1ccc(Cl)cc1Cl)C2 | 33.2 | 10.8 | > 50 | 39.6 | 14.8 | 40 |
| Cc1ccccc1C(=O)Nc1sc2c(c1C(N)=O)CCN(C(=S)Nc1ccccc1C(F)(F)F)C2 | 76.9 | 17.4 | > 50 | 72 | 23.2 | 60.1 |
| Cc1ccccc1NC(=S)N1CCc2c(sc(NC(=O)c3ccccc3C)c2C(N)=O)C1 | 43 | > 50 | > 50 | 48.3 | > 50 | 37.1 |
| NC(=O)c1c(NC(=O)c2ccccc2)sc2c1CCN(C(=S)Nc1ccccc1Cl)C2 | 77.5 | 11.8 | > 50 | 73.8 | 13.8 | 58.9 |

| Compound | inhibition [1] [%] | IC50 (MKN-74) [µM] | IC50 (HeLa) [µM] | inhibition [2] [%] | IC50 (HL-60) [µM] | inhibition [3] [%] |
| --- | --- | --- | --- | --- | --- | --- |
| NC(=O)c1c(NC(=O)c2ccccc2Cl)sc2c1CCN(Cc1c(Cl)cccc1Cl)C2 | 78.1 | 4.74 | 28.8 | 57.8 | 4.85 | 61.9 |
| Cc1ccccc1C(=O)Nc1sc2c(c1C(N)=O)CCN(C(=S)Nc1ccccc1Cl)C2 | 65.9 | 11 | 35.3 | 70.6 | 20.9 | 53 |
| Cc1ccc(C(=O)Nc2sc3c(c2C(N)=O)CCN(C(=S)Nc2ccccc2Cl)C3)cc1 | 82.8 | 11.3 | 26.2 | 83.2 | 8.43 | 50.4 |
| NC(=O)c1c(NC(=O)c2ccccc2Cl)sc2c1CCN(C(=S)Nc1ccccc1Br)C2 | 86.9 | 10.8 | 24.6 | 90.9 | 9.09 | 88.5 |
| NC(=O)c1c(NC(=O)c2ccccc2Cl)sc2c1CCN(C(=S)Nc1ccccc1F)C2 | 82.8 | 12.6 | 28.7 | 88.4 | 4.97 | 70.7 |
| CSc1ccccc1C(=O)Nc1sc2c(c1C(N)=O)CCN(C(=S)Nc1ccccc1Cl)C2 | 63.4 | 6.55 | 34.7 | 67.2 | 30.5 | 49.1 |
| NC(=O)c1c(NC(=O)c2ccccc2Cl)sc2c1CCN(C(=S)Nc1c(Cl)cccc1Cl)C2 | 90.5 | 4.02 | 26.5 | 90.7 | 3.95 | 88 |
| Cc1ccccc1CN1CCc2c(sc(NC(=O)c3ccccc3Cl)c2C(N)=O)C1 | 53.4 | > 50 | > 50 | 60.6 | > 50 | 55.3 |
| NC(=O)c1c(NC(=O)c2ccc[nH]2)sc2c1CCN(C(=S)Nc1cccnc1)C2 | 79.7 | > 50 | 47.4 | 74.4 | > 50 | 48.6 |
| NC(=O)c1c(NC(=O)c2ccccc2Cl)sc2c1CCN(C(=S)Nc1cccnc1)C2 | 45.4 | 38.6 | > 50 | 41.9 | 33.9 | 34.9 |
| NC(=O)c1c(NC(=O)c2ccccc2Cl)sc2c1CCN(C(=S)Nc1ccc(C(F)(F)F)cc1)C2 | 54.4 | 7.09 | > 50 | 80.5 | 7.59 | 57.4 |
| NC(=O)c1c(NC(=O)c2ccccc2)sc2c1CCN(C(=S)Nc1ccccc1)C2 | 66.3 | > 50 | > 50 | 65.8 | > 50 | 61.4 |
| NC(=O)c1c(NC(=O)c2ccccc2I)sc2c1CCN(C(=S)Nc1ccccc1Cl)C2 | 85.8 | 17.5 | > 50 | 83.5 | 8.56 | 80.4 |
| COc1ccccc1NC(=S)N1CCc2c(sc(NC(=O)c3ccccc3I)c2C(N)=O)C1 | 59.6 | 41.8 | > 50 | 56.1 | > 50 | 42.8 |
| NC(=O)c1c(NC(=O)c2ccccc2Cl)sc2c1CCN(Cc1cc(Cl)cc(Cl)c1)C2 | 59.9 | 23.7 | 19.6 | 61 | 15.8 | 22.9 |
| NC(=O)c1c(NC(=O)c2ccccc2Cl)sc2c1CCN(C(=O)Nc1ccccc1Cl)C2 | 88.4 | 16.3 | 45.4 | 89.2 | 12.5 | 89.9 |
| NC(=O)c1c(NC(=O)c2ccccc2Br)sc2c1CCN(C(=S)Nc1ccccc1Cl)C2 | 89.7 | 12.9 | 46.9 | 87.7 | 14.6 | 80.5 |
| Cc1ccccc1C(=O)Nc1sc2c(c1C(N)=O)CCN(C(=S)Nc1ccccc1Br)C2 | 65.2 | > 50 | > 50 | 64.7 | 45.2 | 54.9 |
| NC(=O)c1c(NC(=O)c2ccccc2Cl)sc2c1CCN(Cc1ccccc1Cl)C2 | 65.2 | 4.43 | 27.5 | 61.4 | 2.9 | 65.1 |
| NC(=O)c1c(NC(=O)c2ccccc2C(F)(F)F)sc2c1CCN(C(=S)Nc1ccccc1F)C2 | 81.6 | 19.6 | > 50 | 77.2 | 23.5 | 86.5 |
